Publication PMC5315023 (Nature, 2016)

System: MEFs expressing Mfn1 or Mfn2 in any combination
Assay: Mitochondrial aspect ratio/morphology with adenovirally expressed minipeptides
Type: cell-based, mouse
Details: adenoviral expression, MOI of 100, MEFs

For RQVSTAMAEEIRRLSVLVDDY [Adeno428-448], the “Effect on mitochondrial fusion / morphology” value was “did not affect mitochondrial fusion”.
